US20210330611A1, “THERAPY FOR NEUROLOGICAL DISEASES/DISORDERS” (priority 2020, published 2021)
Counter-ions that a name gives are not always drawn. Like-named read-outs stand apart in the source and are kept apart here.

Assays:
[1] = system: primary rat microglia
[2] = system: LPS-induced microglia activation; experiment: Image-based assay of LPS-induced microglia activation (HTS and dose response); format: cell-based, rat
[3] = system: fibrin- and LPS-induced microglia activation; experiment: cells; format: cell-based, rat
[4] = system: fibrin-induced microglia activation; experiment: Image-based assay of fibrin-induced microglia activation (HTS and dose response); format: cell-based, rat; settings: for inhibition at 10 µM: Rattus norvegicus, Microglia, read-out: Fibrin % inhibition
[5] = Rattus norvegicus, Microglia, primary microglia HTS, LPS stimulation, compounds at 10 μM; read-out: LPS % inhibition
[6] = quadrant by fibrin and LPS inhibition, HTS at 10 μM
[7] = primary microglia HTS, fibrin stimulation, compounds at 10 μM
[8] = Rattus norvegicus, Microglia, 48 h, primary microglia HTS, LPS stimulation; increased cell size (>800 μm^2) as marker of activation; read-out: LPS % inhibition
[9] = quadrant by fibrin and LPS inhibition in HTS of 1907 compounds
[10] = primary microglia HTS, fibrin stimulation, increased cell size (>800 μm^2) as marker of activation
[11] = Rattus norvegicus, Microglia, read-out: LPS % inhibition
[12] = classification by fibrin and LPS inhibition in HTS
[13] = primary microglia HTS, fibrin stimulation, cell size >800 μm2 as marker of activation
[14] = Rattus norvegicus, Microglia, primary HTS, 10 μM, LPS-stimulated primary microglia; read-out: LPS % inhibition
[15] = primary HTS, 10 μM, fibrin-stimulated primary microglia

NCCS(=O)(=O)O [2-Aminoethanesulfonic Acid]
LPS % cell toxicity ([1]; rat): 0%
inhibition at 10 µM [2, 5]: 19%
Quadrant (FIG. 5b) [3, 6]: Q4
inhibition at 10 µM [4, 7]: -13%

CNCC(O)c1ccc(O)c(O)c1 (stereo not drawn) [Racepinephrine]
LPS % cell toxicity ([1]; rat): 0%
inhibition at 10 µM ([2]; Rattus norvegicus, Microglia, 48 h, read-out: LPS % inhibition): 29%
Quadrant (FIG. 5b) [3]: Q4
inhibition at 10 µM [4]: 27%

CC(C)(CO)[C@@H](O)C(=O)NCCC(=O)O [Pantothenic Acid]
LPS % cell toxicity ([1]; rat): 1%
inhibition at 10 µM [2, 8]: 5%
Quadrant (FIG. 5b) [3, 9]: Q4
inhibition at 10 µM [4, 10]: 7%

COCCOC(=O)C1=C(C)NC(C)=C(C(=O)OC(C)C)C1c1cccc([N+](=O)[O-])c1 (stereo not drawn) [Nimodipine]
LPS % cell toxicity ([1]; rat): 0%
inhibition at 10 µM [2, 8]: 2%
Quadrant (FIG. 5b) [3, 9]: Q4
inhibition at 10 µM [4, 10]: -6%

OCCN(CCO)c1nc(N2CCCCC2)c2nc(N(CCO)CCO)nc(N3CCCCC3)c2n1 [Dipyridamole]
LPS % cell toxicity ([1]; rat): 0%
inhibition at 10 µM [2, 11]: 6%
Quadrant (FIG. 5b) [3]: Q4
inhibition at 10 µM [4]: 11%

O=C(O[C@H]1CN2CCC1CC2)N1CCc2ccccc2[C@@H]1c1ccccc1 [Solifenacin Succinate]
LPS % cell toxicity ([1]; rat): 0%
inhibition at 10 µM ([2]; Rattus norvegicus, Microglia, 48 h; read-out: LPS % inhibition): -4%
Quadrant (FIG. 5b) [3, 12]: Q4
inhibition at 10 µM [4, 13]: -2%

O=C(N[C@H](CO)[C@H](O)c1ccc([N+](=O)[O-])cc1)C(Cl)Cl [Chloramphenicol]
LPS % cell toxicity ([1]; rat): 0%
inhibition at 10 µM [2, 14]: 6%
Quadrant (FIG. 5b) ([3]; primary HTS, 10 μM): Q4
inhibition at 10 µM [4, 15]: 19%

CCCc1nn(C)c2c(=O)[nH]c(-c3cc(S(=O)(=O)N4CCN(C)CC4)ccc3OCC)nc12 [Sildenafil, Sildenafil Citrate]
LPS % cell toxicity [1]: 0%
LPS % inhibition [2]: 20%
Quadrant (FIG. 5b) [3, 12]: Q4
Fibrin % inhibition [4, 13]: 22%

CNC[C@H](O)c1ccc(O)c(O)c1.O=C(O)C(O)C(O)C(=O)O
LPS % cell toxicity [1]: 0%
LPS % inhibition ([2]; 10 µM): 19%
Quadrant (FIG. 5b) [3]: Q4
Fibrin % inhibition ([4]; 10 µM): 35%

CCN1CCN(c2cc3c(cc2F)c(=O)c(C(=O)O)cn3C2CC2)CC1 [Enrofloxacin]
LPS % cell toxicity ([1]; rat): 1%
inhibition at 10 µM [2, 5]: 23%
Quadrant (FIG. 5b) ([3]; classification by fibrin and LPS inhibition, HTS at 10 μM): Q4
inhibition at 10 µM [4, 7]: 5%

CCN(CC)Cc1cc(Nc2ccnc3cc(Cl)ccc23)ccc1O [Amodiaquine Dihydrochloride]
LPS % cell toxicity ([1]; rat): 85%
inhibition at 10 µM [2, 8]: 114%
Quadrant (FIG. 5b) [3, 9]: Q1
inhibition at 10 µM [4, 10]: 4%

CC(=O)O[C@H]1C[C@@H]2CC[C@@H]3[C@H](CC[C@@]4(C)[C@H]3C[C@H]([N+]3(C)CCCCC3)[C@@H]4OC(C)=O)[C@@]2(C)C[C@@H]1[N+]1(C)CCCCC1 [Pancuronium Bromide]
LPS % cell toxicity ([1]; rat): 0%
LPS % inhibition ([2]; primary microglia HTS, LPS stimulation; increased cell size (>800 μm^2) as marker of activation): 11%
Quadrant (FIG. 5b) [3, 9]: Q4
Fibrin % inhibition [4, 10]: 9%

CC1CNc2c(cccc2S(=O)(=O)N[C@@H](CCCNC(=N)N)C(=O)N2CC[C@@H](C)C[C@@H]2C(=O)O)C1 (stereo partly drawn) [Argatroban]
LPS % cell toxicity ([1]; rat): 0%
inhibition at 10 µM [2, 5]: 8%
Quadrant (FIG. 5b) [3, 6]: Q4
inhibition at 10 µM [4, 7]: -10%

O=C(CCCN1CCC(O)(c2ccc(Br)cc2)CC1)c1ccc(F)cc1 [Bromperidol]
LPS % cell toxicity ([1]; rat): 0%
inhibition at 10 µM [2, 14]: 7%
Quadrant (FIG. 5b) ([3]; primary HTS, 10 μM): Q4
inhibition at 10 µM [4, 15]: -6%

NC(=O)NO [Hydroxyurea]
LPS % cell toxicity ([1]; rat): 1%
inhibition at 10 µM ([2]; Rattus norvegicus, Microglia, 48 h, primary microglia HTS, LPS stimulation, activation = cell size >800 μm2; read-out: LPS % inhibition): 25%
Quadrant (FIG. 5b) [3, 9]: Q4
inhibition at 10 µM ([4]; primary microglia HTS, fibrin stimulation, activation = cell size >800 μm2): 1%

CN(C)c1nc(N(C)C)nc(N(C)C)n1 [Altretamine]
LPS % cell toxicity ([1]; rat): 0%
inhibition at 10 µM [2, 5]: 16%
Quadrant (FIG. 5b) [3, 6]: Q4
inhibition at 10 µM [4, 7]: -29%

CN1CCC(OC(c2ccccc2)c2ccccc2)CC1 [Diphenylpyraline]
LPS % cell toxicity ([1]; rat): 0%
inhibition at 10 µM [2, 11]: 6%
Quadrant (FIG. 5b) [3]: Q4
inhibition at 10 µM [4]: -69%

OC(CCN1CCCCC1)(c1ccccc1)C1CC2C=CC1C2 (stereo not drawn) [Biperiden]
LPS % cell toxicity ([1]; rat): 1%
inhibition at 10 µM [2, 14]: 17%
Quadrant (FIG. 5b) ([3]; primary HTS, 10 μM): Q4
inhibition at 10 µM [4, 15]: 2%
